# Experimental data from ChEMBL document CHEMBL2384975, “Combination Therapy: JAK PI3K/mTOR. A Novel Approach for Cancer Treatment” (2013).
# Tests used:
# Assay type in all cases: functional, BaF3
# [1] = Anticancer activity against mouse BA/F3 cells expressing JAK2 V617F mutation allografted in Harlan SCID mouse assessed as mean survival days at 60 mg/kg, po by luciferase reporter gene assay (reference value: 16 days)
# [2] = Anticancer activity against mouse BA/F3 cells expressing JAK2 V617F mutation allografted in Harlan SCID mouse assessed as increase in lifespan at 60 mg/kg, po by luciferase reporter gene assay relative to control
# [3] = Anticancer activity against mouse BA/F3 cells expressing JAK2 V617F mutation allografted in Harlan SCID mouse assessed as mean survival days at 45 mg/kg, po by luciferase reporter gene assay (reference value: 16 days)
# [4] = Anticancer activity against mouse BA/F3 cells expressing JAK2 V617F mutation allografted in Harlan SCID mouse assessed as increase in lifespan at 45 mg/kg, po by luciferase reporter gene assay relative to control
SMILES,MSD [1] [days],Activity [2] [%],MSD [3] [days],Activity [4] [%]
N#CC[C@H](C1CCCC1)n1cc(-c2ncnc3[nH]ccc23)cn1 [RUXOLITINIB],19,19,–,–
Cn1c(=O)n(-c2ccc(C(C)(C)C#N)cc2)c2c3cc(-c4cnc5ccccc5c4)ccc3ncc21 [DACTOLISIB],–,–,24,42
